Laboratory results as given in patent US20130273557A1 (priority 2010, published 2013).
Entries after “also recorded” stand apart in the source; their conditions may differ.

What was measured:
[1] = molecular target: T1, intermediate- and large-conductance channel activity of PSI-mitochondria (Rattus norvegicus, UniProt P19511+Q06647); assay: Patch clamp recording of brain-derived PSI-mitochondria; type: biochemical
T1 sequence (P19511 43-256): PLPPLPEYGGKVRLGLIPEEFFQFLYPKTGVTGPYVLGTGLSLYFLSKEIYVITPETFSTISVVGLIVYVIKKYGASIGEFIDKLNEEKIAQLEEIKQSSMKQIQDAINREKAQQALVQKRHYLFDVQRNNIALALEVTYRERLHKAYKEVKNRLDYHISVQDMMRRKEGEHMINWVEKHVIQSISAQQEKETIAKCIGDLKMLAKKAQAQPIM
T1 sequence (Q06647 24-213): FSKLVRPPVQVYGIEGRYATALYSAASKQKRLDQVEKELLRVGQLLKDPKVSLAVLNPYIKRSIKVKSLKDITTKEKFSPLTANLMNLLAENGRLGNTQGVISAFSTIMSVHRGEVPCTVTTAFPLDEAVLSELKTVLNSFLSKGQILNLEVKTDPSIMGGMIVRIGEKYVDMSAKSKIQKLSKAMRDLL
Protocol: Isolation of Brain-derived Mitochondria. Standard techniques were adapted for isolating brain-derived mitochondria. Mitochondria were stored in isolation buffer (IB) at −80° C. For PSI-mitochondria, male Sprague-Dawley rats (6 wo, ˜200 gm, 3-6 rats/group/condition, at least 2 different preparations/experimental paradigm) were injected with the ubiquitin proteasome inhibitor Z-Ile-Glu(OtBu)-Ala-Leu-al (PSI; Peptides International Inc, Kentucky, USA; s.c. every other day for 1 or 2 weeks; 6.0 mg/kg PSI in DMSO, or with DMSO, 200 μL/rat), and mitochondria isolated and stored as above.
(§1) Reagents were rapidly perfused into the recording chamber.

[2] = molecular target: leak conductance of SMVs enriched in F1FO ATP synthase (complex V) (Rattus norvegicus, UniProt P19511+Q06647); assay: biochemical
Protocol: as §1
(§2) Giga-ohm seals were formed on SMVs using pipettes and solutions as above. Peak membrane conductance was measured as described above.

[3] = system: leak conductance of urea-treated SMVs; assay: Patch clamp recordings of urea-treated SMVs (F1 removed); type: biochemical, rat
Protocol: F1 subunits were removed from SMVs by adapting previously-established methods. 60 mg SMV's/1 mL IB was treated with 1 mL of […] for 5 min. on ice, then centrifuged at 21000×g for 10 min. The pellet was washed 3× in IB (centrifugation at 21000×g for 10 min) and stored in IB.
as §2

[4] = system: single cultured hippocampal neurons; conditions: acute application of 10 μM, after 1-5 min
Protocol: Oxygen uptake was measured in single hippocampal neurons in culture (DIV 14-17). A […] (tip diameter) oxygen-sensing electrode oscillated 10 μm close-to and away-from the cell every 3 sec. The difference in current detected at the two positions was translated into oxygen flux.

[5] = system: SH-SY5Y neuroblastoma cells; conditions: 30 μM
Protocol: (§3) Undifferentiated SH-SY5Y human neuroblastoma cells (ATCC, Manasses, Va.) were maintained in humidified 5% CO2 in 1:1 Ham's F12 nutrient mixture with Glutamax® and Minimal Essential Medium with L-glutamine (MEM-Alpha), 10% FBS, and 1% penicillin/streptomycin (Gibco® Invitrogen Corp., Carlsbad, Calif.).
OCR and ECAR were measured with a Seahorse® XF24 Flux Analyzer (Seahorse Bioscience, Billerica, Mass.). For PSI experiments on C2C12 cells, basal values were assessed in non-buffered DMEM Assay Medium without glucose, glutamine or pyruvate, and supplemented with 25 mM glucose, 6 mM Glutamax®, and 1 mM sodium pyruvate. […] Succinate and ADP stocks were diluted to 10× concentrations in pre-warmed XF MAS buffer, pH 7.2. Using a Plate Prep Station (Seahorse Bioscience, Billerica, Mass.), cells were washed with 1 mL buffer and were brought to 607 μL with buffer. […] Raw basal OCR and ECAR values were normalized as a percent of the mean control value for each individual experiment. Normalized data from experiments were expressed as mean±SEM.

C2C12 cells = conditions: mouse, 18 h, 30 µM
Protocol: Data are presented as a percentage of the vehicle-treated control ±SEM (n=10 wells at each concentration). […] Experiments commenced 18 hr. after addition of drug. […] Data are presented as a percentage of the vehicle-treated control±SEM (n=14-17 wells for each group).
The C2C12 mouse myoblast cell line (ATCC, Manasses, Va.) was cultured in Dulbecco's Modified Eagle Medium (DMEM; Gibco®; Carlsbad, Calif.) supplemented with 10% fetal bovine serum (FBS), 2 mM GlutaMax® and penicillin/streptomycin. Cells were maintained in 10% CO2 humidified at 37° C.
(§4) Cellular viability was measured using CellTiter-Blue® (Promega Corp., Madison, Wis.) in black-walled optical imaging multiwell plates, and cellular ATP was measured using the CellTiter-Glo® (Promega Corp., Madison, Wis.) luminescence assay in opaque-walled multiwell plates according to the manufacturer's protocol.

[6] = system: SH-SY5Y neuroblastoma cells; assay: PSI-induced cell death in SH-SY5Y cells (CellTiter-Blue)
Protocol: Data shown represent mean±SEM. […] Bar graphs represent normalized mean±SEM. Cell viability was measured by CellTiter-Blue®; n=41-98 wells/condition.
as §3, §4

[7] = molecular target: human F1FO ATP synthase b subunit (Homo sapiens, UniProt P24539); conditions: co-incubation in 'cold' dexpramipexole (100 μM)
Text: The human ORF constructs for alpha, beta, b, c, delta, d, epsilon, gamma and OSCP ATP synthase subunits, tagged with Myc and DDK (Flag) tags were from Origene Technologies (Rockville, Md.). 293T cells were transfected with the above constructs, using the calcium phosphate method (Li et al. 2008). On day-3 post transfection, the cells were lysed and the fusion proteins were bound to the EZview™ Red ANTI-FLAG® M2 Affinity Gel (Sigma, USA), according to the manufacturer's protocol. The proteins were eluted from a portion of the samples and presence of the proteins on the beads was verified by immunoblot analysis, using the mouse anti-Myc antibodyies (Cell signaling Technology). […] They were spun at 3000×g in 0.45 um Spin-X centrifugal devices (Corning Life Sciences, USA) for 10 min. The samples were washed three times with PBS and the filter units were incubated in Ultima Gold scintillation liquid (Perkin Elmer Health Sciences, Inc.) overnight. Samples were counted for ^14C, using a Beckman Coulter LS 5000TD scintillation counter.

[8] = system: G93A-SOD1 mutant mouse model of ALS; conditions: independent laboratory; cited from earlier work
[9] = system: human neuroblastoma SH-SY5Y cells; conditions: MPP^+ or PSI exposure; cited from earlier work
[10] = doses that should produce pharmacodynamically effective CNS concentrations; cited from earlier work
subjects with ALS = conditions: double-blind, placebo- and low-dose-controlled 2-part Phase 2; cited from earlier work
complex V (F1FO ATPase) = complex V (F1FO ATPase) (Rattus norvegicus, UniProt P19511+Q06647); assay: ATP hydrolysis in SMVs, luciferin-luciferase assay; type: biochemical; set-up: from tissue; host or cells: rat brain mitochondria, lubrol-insoluble submitochondrial vesicles (SMVs)
Text: 3 wells were used for each condition, repeated at least 3× on different SMV isolations.

Chain of human F1FO ATP synthase b subunit (P24539 43-256): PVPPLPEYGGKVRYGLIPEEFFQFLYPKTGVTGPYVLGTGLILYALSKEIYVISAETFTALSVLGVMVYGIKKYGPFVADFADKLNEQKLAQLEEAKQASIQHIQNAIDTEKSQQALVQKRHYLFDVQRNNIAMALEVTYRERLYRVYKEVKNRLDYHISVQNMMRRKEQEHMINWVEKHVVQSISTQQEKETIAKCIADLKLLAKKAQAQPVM

CCCN[C@@H]1CCc2nc(N)sc2C1 [dexpramipexole, (6R)-4,5,6,7-tetrahydro-N-6-propyl-2,6-benzothiazole-diamine]
Hill slope of concentration-response curve ([1]; NPO inhibition in PSI-mitochondria): < 1 | concentration for full inhibition of aberrant currents (EC100) ([1]; PSI-mitochondria): > 10 µM | intermediate- and large-conductance channel activity ([1]; PSI-mitochondria): the inhibition was concentration-dependent and reversible | peak conductance ([1]; dexpramipexole 2 μM, CSA 1 μM, PSI-mitochondria): significantly and reversibly decreased peak conductance | concentrations producing complete elimination of aberrant currents (EC100) ([1]; level stated in discussion): 10 to 30 µM | EC50 [2]: 111 nM | currents in SMVs ([2]; high [Ca^2+], 2 μM dexpramipexole, 1.0 μM CSA): inhibited | leak conductance after removal of F1 [3]: no longer inhibited the conductance | decrease in average oxygen flux [4]: ~16% | basal oxygen consumption rate (OCR) [5]: modestly decreased | cell viability (C2C12 cells): neither ATP levels nor cell viability (FIG. 5b) were significantly affected | cytoprotective concentrations [6]: ≥ 10 µM | protection against PSI-induced cell death ([6]; pretreatment with dexpramipexole): protective; also recorded: inhibited PSI-induced cell death in a concentration-dependent manner | competition of ^14C-dexpramipexole binding to b subunit [7]: significantly reduced binding | in vivo survival [8]: significantly increased in vivo survival | in vitro cytoprotection [9]: significant concentration-dependent in vitro cytoprotection | safety and tolerability [10]: safe and well-tolerated | trends in efficacy (subjects with ALS): reduction of functional decline and decreased mortality | EC50 (complex V (F1FO ATPase)): 1630 nM
